Measured values from patent publication US12583869B2, “Salt form and crystal form of A2A receptor antagonist and preparation method therefor” (CSTONE PHARMACEUTICAL (SUZHOU) CO., LTD., priority 2019, dated 2026).
Read-outs that look alike come from different tables or passages of the source. One block for each molecule: values may come before it.

Experiments:
[1] = Stability experiments of crystal forms (60°C/75% RH, HPLC related substances); type: physicochemical; conditions: for Stability under high temperature and high humidity conditions (in words): 60°C/75% humidity, 1 week
Method: A certain amount (approximately 10 mg) of two parts of the crystal form A of the compound of formula (I), the crystal form B of the compound of formula (II) and the crystal form C of the compound of formula (III) were weighed in parallel, and added to a 40 mL of sample bottle, which were placed in a constant temperature and humidity box at 60° C./75% humidity for 1 week. Another sample (about 10 mg) of the crystal form A of the compound of formula (I), the crystal form B of the compound of formula (II) and the crystal form C of the compound of formula (III) were placed in a refrigerator at −20° C. as control samples. At the time point of investigation, the corresponding test sample was taken out of the stability box, the aluminum foil paper was removed from the sample bottle of 60° C./75% RH, and the sample bottle was covered with a bottle cap. The 0-day samples were taken out of the refrigerator and analyzed after the samples were restored to room temperature.

[2] = Pharmacokinetic experiment in mice, single intravenous and oral administration; type: in vivo; conditions: female, mouse, plasma; Balb/c mice, oral vs intravenous; read-out: Bioavailability F
Method: Experimental materials: Balb/c mice (female, 15-30 g, 7-9 weeks old, Shanghai Lingchang) were used.
Experimental method: The rodent pharmacokinetic characteristics of the compound after intravenous injection and oral administration were tested by a standard protocol. In the experiment, the candidate compound was formulated into a clear solution and given to mice by a single intravenous injection and a single oral administration. The solvent for intravenous injection (IV) was a mixed solvent of 5% DMSO/5% polyethylene glycol hydroxystearate/90% water, and the solvent for oral (PO) was a mixed solvents of 1% tween80, 9% PEG400, 90% H2O (pH=3). Whole blood samples within 48 hours were collected, centrifuged at 3000 g for 15 minutes at 4 degrees, separated the supernatant to obtain a plasma sample. Then 20 times the volume of acetonitrile solution containing internal standard was added to precipitate the protein, the mixture was centrifuged to take the supernatant, equal volume of water was added and centrifuge to take the supernatant again for injection. The blood drug concentration was quantitatively analyzed by LC-MS/MS analysis method, and the pharmacokinetic parameters were calculated, such as peak concentration, peak time, clearance rate, half-life, area under the drug-time curve, bioavailability, etc.

[3] = In vivo PK experiment, plasma and tumor tissue on day 20 of the efficacy experiment; set-up: species or system BALB/c mice; conditions: BALB/c, mouse, oral; for concentration at 1 h / concentration at 4 h: tumor, read-out: Tumor drug concentration
Method: Blood was collected and tissues were collected from each group of the experiment at different time points (0 h, 0.25 h, 0.5 h, 1 h, 2 h, 4 h, 8 h and 24 h) on day 20 of the administration of experimental embodiment 3. The pharmacokinetic parameters of each experimental group were shown in Table 12, and the biological ratios of the tumor tissue drug concentration and the corresponding blood sampling point tumor tissue drug concentration and plasma drug concentration of each experimental group were shown in Table 13.

[4] = tested on: mouse colon cancer CT26 cells; experiment: In vivo drug efficacy experiment, subcutaneous CT26 allograft tumor; set-up: species or system BALB/c mice; conditions: CS1003 1 mg/kg intraperitoneal, day 20
Method: Experimental materials: BALB/c mice (female); mouse colon cancer CT26 cells (cell bank of the Type Culture Collection Committee of the Chinese Academy of Sciences), were cultured in a monolayer in vitro, and the culture condition was RPMI-1640 medium containing 10% fetal bovine serum, and cultured in 5% CO2 incubator at 37° C. Trypsin-EDTA was used for conventional digestion and passage. When the cells were in the exponential growth phase and the saturation was 80%-90%, the cells were collected and counted.
Compound preparation: The compound of formula (II-1) was weighed and added to a solvent (10% PEG400+90% (10% Cremophor aqueous solution)) to prepare samples of 2.5 mg/mL, 5 mg/mL, and 10 mg/mL, respectively. […]
Experimental operation: The cells in Dulbecco's phosphate buffer were resuspended at a density of 3×10^6 cells/mL. […] During the entire experiment, the animals were weighed and monitored daily. […] The tumor diameter was measured with vernier calipers twice a week. […]
The anti-tumor efficacy of the compound was evaluated by GI (%) or relative tumor proliferation rate T/C (%). […]
The statistical analysis was based on the relative tumor volume and tumor weight at the end of the experiment using SPSS software. The comparison between the two groups was analyzed by t-test, and the comparison between three or more groups was analyzed by one-way ANOVA. […]

Molecule: Nc1nc(-c2ccc(F)cc2)c(-c2ccc3ncnn3c2)c2nccnc12 [Crystal form C of the compound of formula (III)]
Impurity at relative retention time 0.36 ([1]; 0 day (control sample, -20°C)): 0.05
Impurity at relative retention time 0.45 ([1]; 0 day (control sample, -20°C)): 0.09
Impurity at relative retention time 0.49 ([1]; 0 day (control sample, -20°C)): 0.08
Impurity at relative retention time 0.67 ([1]; 0 day (control sample, -20°C)): 0.04
Impurity at relative retention time 0.70 ([1]; 0 day (control sample, -20°C)): 0.09
Impurity at relative retention time 1.18 ([1]; 0 day (control sample, -20°C)): 0.50
Total impurities % ([1]; 0 day (control sample, -20°C)): 0.96%
Impurity at relative retention time 0.36 ([1]; 60 C./75% RH, one week): 0.05
Impurity at relative retention time 0.45 ([1]; 60 C./75% RH, one week): 0.09
Impurity at relative retention time 0.49 ([1]; 60 C./75% RH, one week): 0.08
Impurity at relative retention time 0.67 ([1]; 60 C./75% RH, one week): 0.04
Impurity at relative retention time 0.70 ([1]; 60 C./75% RH, one week): 0.09
Impurity at relative retention time 1.18 ([1]; 60 C./75% RH, one week): 0.52
Total impurities % ([1]; 60 C./75% RH, one week): 1.16%
Stability under high temperature and high humidity conditions (in words) [1]: good stability

B1: CS1003: full-length, fully humanized immunoglobulin G4 (IgG4) monoclonal antibody against PD-1 (antibody, chains of the INN, looked up, V domains shown)
VH: QVQLVQSGAEVKKPGSSVKVSCKASGFTFTTYYISWVRQAPGQGLEYLGYINMGSGGTNYNEKFKGRVTITADKSTSTAYMELSSLRSEDTAVYYCAIIGYFDYWGQGTMVTVSS
VL: DVVMTQSPLSLPVTLGQPASISCRSSQSLLDSDGGTYLYWFQQRPGQSPRRLIYLVSTLGSGVPDRFSGSGSGTDFTLKISRVEAEDVGVYYCMQLTHWPYTFGQGTKLEIK
Tumor volume [4]: 487.34±109.07 mm^3
Tumor inhibition rate GI ([4]; no significant difference with solvent control): 42.47%

Second part, the molecule after the results:

Impurity at relative retention time 0.36 ([1]; 0 day (control sample, -20°C)): 0.06
Impurity at relative retention time 0.45 ([1]; 0 day (control sample, -20°C)): 0.09
Impurity at relative retention time 0.49 ([1]; 0 day (control sample, -20°C)): 0.09
Impurity at relative retention time 0.67 ([1]; 0 day (control sample, -20°C)): 0.05
Impurity at relative retention time 0.70 ([1]; 0 day (control sample, -20°C)): 0.11
Impurity at relative retention time 1.18 ([1]; 0 day (control sample, -20°C)): 0.29
Total impurities % ([1]; 0 day (control sample, -20°C)): 0.69%
Impurity at relative retention time 0.36 ([1]; 60 C./75% RH, one week): 0.05
Impurity at relative retention time 0.45 ([1]; 60 C./75% RH, one week): 0.09
Impurity at relative retention time 0.49 ([1]; 60 C./75% RH, one week): 0.09
Impurity at relative retention time 0.67 ([1]; 60 C./75% RH, one week): 0.05
Impurity at relative retention time 0.70 ([1]; 60 C./75% RH, one week): 0.12
Impurity at relative retention time 1.18 ([1]; 60 C./75% RH, one week): 0.29
Total impurities % ([1]; 60 C./75% RH, one week): 0.69%
Stability under high temperature and high humidity conditions (in words) [1]: good stability
Molecule: Nc1nc(-c2ccc(F)cc2)c(-c2ccc3ncnn3c2)c2nccnc12.O=C(O)/C=C\C(=O)O

bioavailability [2]: 30.4%
concentration at 1 h ([3]; 25 mpk, Group 4, 25 mpk + CS1003, time point 1 h): 3.48 µM
concentration at 4 h ([3]; 25 mpk, Group 4, 25 mpk + CS1003, time point 4 h): 0.925 µM
concentration at 1 h ([3]; 50 mpk, Group 5, 50 mpk once a day + CS1003, time point 1 h): 9.96 µM
concentration at 4 h ([3]; 50 mpk, Group 5, 50 mpk once a day + CS1003, time point 4 h): 1.66 µM
concentration at 4 h ([3]; 50 mpk, Group 8, 50 mpk twice a day + CS1003, time point 4 h): 3.02 µM
concentration at 1 h ([3]; 100 mpk, Group 6, 100 mpk + CS1003, time point 1 h): 18.7 µM
concentration at 4 h ([3]; 100 mpk, Group 6, 100 mpk + CS1003, time point 4 h): 3.03 µM
Kp at 1 h ([3]; tumor/plasma, Group 4, 25 mpk + CS1003, time point 1 h, read-out: T/P Ratio (compound exposure in tumor tissue and plasma)): 0.7
Molecule: Nc1nc(-c2ccc(F)cc2)c(-c2ccc3ncnn3c2)c2nccnc12 [Compound of formula (II-1)]

Impurity at relative retention time 0.36 ([1]; 0 day (control sample, -20°C)): 0.09
Impurity at relative retention time 0.45 ([1]; 0 day (control sample, -20°C)): 0.10
Impurity at relative retention time 0.49 ([1]; 0 day (control sample, -20°C)): 0.09
Impurity at relative retention time 0.67 ([1]; 0 day (control sample, -20°C)): 0.05
Impurity at relative retention time 0.70 ([1]; 0 day (control sample, -20°C)): 0.15
Impurity at relative retention time 1.18 ([1]; 0 day (control sample, -20°C)): 0.40
Total impurities % ([1]; 0 day (control sample, -20°C)): 0.87%
Impurity at relative retention time 0.36 ([1]; 60 C./75% RH, one week): 0.09
Impurity at relative retention time 0.45 ([1]; 60 C./75% RH, one week): 0.10
Impurity at relative retention time 0.49 ([1]; 60 C./75% RH, one week): 0.09
Impurity at relative retention time 0.67 ([1]; 60 C./75% RH, one week): 0.05
Impurity at relative retention time 0.70 ([1]; 60 C./75% RH, one week): 0.15
Impurity at relative retention time 1.18 ([1]; 60 C./75% RH, one week): 0.40
Total impurities % ([1]; 60 C./75% RH, one week): 0.87%
Stability under high temperature and high humidity conditions (in words) [1]: good stability
Molecule: Nc1nc(-c2ccc(F)cc2)c(-c2ccc3ncnn3c2)c2nccnc12 [Crystal form B of the compound of formula (II)]
